For experiment [1], the system named is KRAS G12D protein/effector signaling in GP2d cells. Put plainly: Cell-based pERK HTRF assay in GP2d cell. The following applies: 1 h, 60 min incubation. Here is the method: A pERK assay (Perkin Elmer) was used to determine the effectiveness of compounds in disrupting KRAS G12D protein/effector signaling in cells.
On Day 1, cells (GP2d) were seeded into 96-well plates at 3×10^4 cells/well in 80 μL complete growth media (DMEM, 10% FBS).
(§1) On Day 2, cells were treated with compounds at 0.25% DMSO. The source plate was created with compounds diluted in media at 5-fold the final assay concentration. The compounds were run in a 9-point concentration curve starting at 1 M, with a half-log dilution between concentrations. 20 μL was transferred onto the cell plates (final volume in wells was 100 μL). Plates were harvested after 60 min incubation by aspirating media and adding kit-supplied 1× supplemented lysis buffer to all wells (50 μL per well). Plates were then placed on a plate shaker and incubated at 850 rpm for an additional 30 min.
Antibody mixture solution was prepared by diluting aliquoted d2 and Eu Cryptate antibodies 1:20 in kit supplied detection buffer, and mixing the diluted antibodies solutions (1:1 v:v). 4 μL of this solution was then added to a 384-well detection plate (Perkin Elmer; 6008230).
(§2) Samples were homogenized by pipetting up and down and then transferred (16 μL of cell lysates) from the 96-well cell culture plate to two wells of the HTRF 384-well detection plate containing the antibody solution. Plates were centrifuged (524 g for 1 min) and allowed to incubate between 4 and 24 h at room temperature. Maximum signal was reached after 4 h incubation time and remained stable over a period of 24 hours. Therefore, readings could be made between 4 and 24 h of incubation. Plates were centrifuged again (524 g for 1 min), then analyzed on the EnVision plate reader using the following settings: Excitation 320 nm, Bandwidth 75 nm; Emission 615 nm, Bandwidth 85 nm; Gain 100%; Flashes 100; Lag 60 μs.
(TR-FRET usually uses a lanthanide donor and a delayed reading to cut background.)

Experiment [2] deals with KRAS G12V protein/effector signaling in SW620 cells. Put plainly: Cell-based pERK HTRF assay in SW620 cell. The note with it: Homo sapiens, SW-620, 1 h incubation. Here is the method: pERK assay (Perkin Elmer) was used to determine the effectiveness of compounds in disrupting KRAS G12V protein/effector signaling in cells.
On Day 1, cells (SW620) were seeded into 96-well plates at 3×10^4 cells/well in 80 μL complete growth media (DMEM, 10% FBS).
as §1, with “10 μM,” for “1 M,”, “1 h” for “60 min”
Antibody mixture solution was prepared by diluting aliquoted d2 and Eu Cryptate antibodies 1:20 in kit supplied detection buffer, and mixing the diluted antibodies solutions (1:1 v:v). Four μL of this solution was then added to a 384-well detection plate (Perkin Elmer; 6008230).
as §2

Experiment [3] deals with T1, Avi-KRAS G12V (1-169) GppNHp/RAF1 RBD-3×FLAG (52-151) (Homo sapiens, UniProt P01116, G12V).
T1 construct: 50 nM Avi-KRAS G12V (1-169) GppNHp/RAF1 RBD-3×FLAG (52-151)
T1 sequence (P01116 1-169 isoform P01116-2 G12V limits assumed): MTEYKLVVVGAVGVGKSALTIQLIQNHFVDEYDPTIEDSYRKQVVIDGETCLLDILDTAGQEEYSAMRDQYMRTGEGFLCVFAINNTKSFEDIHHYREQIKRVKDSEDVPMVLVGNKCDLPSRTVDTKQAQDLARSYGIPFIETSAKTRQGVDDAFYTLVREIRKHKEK
Put plainly: Disrupting RAS-effector binding HTRF assay, Raf1 RBD-KRAS G12V-GppNHp. The following applies: PPI HTRF, 50 nM Avi-KRAS G12V GppNHp, compound titration 30-0.0045 μM; read-out: Raf1 RBD-KRAS G12V-GppNHp disruption. Here is the method: (§3) A protein:protein interaction (PPI) Homogeneous Time Resolved Fluorescence (HTRF) assay was used to determine the effectiveness of compounds of the present disclosure in disrupting KRAS protein and effector RAF1 binding.
(§4) The HTRF assay used the following reagents and proteins: (i) 50 nM Avi-KRAS G12D (1-169) GppNHp/RAF1 RBD-3×FLAG (52-151); (ii) 50 nM Avi-KRAS G12R (1-169) GppNHp/RAF1 RBD-3×FLAG (52-151); (iii) 50 nM Avi-KRAS G12V (1-169) GppNHp/RAF1 RBD-3×FLAG (52-151), (iv) 50 nM Avi-KRAS WT (1-169) GppNHp/RAF1 RBD-3×FLAG (52-151); and (v) 75 nM Avi-RAF1 RBD-3×FLAG. The assay buffer included: 50 mM Tris pH 7.5, 100 mM NaCl, 5 mM MgCl2, 0.1% BSA, […], 10% DMSO. The bead buffer included: 50 mM Tris pH 7.5, 0.01% o Tween 20. Assay volume of 20 μL was used in a 384 well plate-low volume format. Compound titration: 30-0.0045 μM, 3× dilution series.
(§5) The HTRF assay employed the following protocol:
(§6) Compounds were dispensed in assay plate (384-well, Grenier Bione #784075) using Echo (model 555) with dose response settings: 200 nL final volume, titration from 30 μM as a 10-point dilution series. Protein mix was prepared in assay buffer, and dispensed on plates, 10 μL per well, then incubated for 1 h at room temperature, with 700 rpm shaking. Reagents mix was prepared and dispensed on plates, 10 μL per well, then incubated for 1 h at room temperature, with 700 rpm shaking.
(§7) Plates were analyzed on an Envision plate reader using the following setting: Excitation 320 nm, Bandwidth 75 nM; Emission 615 nm, Bandwidth 85 nM, Gain 100%, Flashes 100, Lag 60 μs. Data were reported as percentage of activity, with DMSO as 100%. Data were plotted and analyzed using Prism 8.
(§8) The biochemical Raf1-KRAS G12D/G12R/G12V/WT-GppNHP disruption assay IC50 of selected compounds described herein are shown in Table 4.

Experiment [4] has as its target T2, Avi-KRAS WT (1-169) GppNHp/RAF1 RBD-3×FLAG (52-151) (Homo sapiens, UniProt P01116).
T2 construct: 50 nM Avi-KRAS WT (1-169) GppNHp/RAF1 RBD-3×FLAG (52-151)
Put plainly: Disrupting RAS-effector binding HTRF assay, Raf1 RBD-KRAS WT-GppNHp. The note with it: PPI HTRF, 50 nM Avi-KRAS WT GppNHp, compound titration 30-0.0045 μM; read-out: Raf1 RBD-KRAS WT-GppNHp disruption. How it is done: as §3, §4, §5, §6, §7, §8

For experiment [5], the target named is T3, Avi-KRAS G12R (1-169) GppNHp/RAF1 RBD-3×FLAG (52-151) (Homo sapiens, UniProt P01116, G12R).
T3 construct: 50 nM Avi-KRAS G12R (1-169) GppNHp/RAF1 RBD-3×FLAG (52-151)
T3 sequence (P01116 1-169 isoform P01116-2 G12R limits assumed): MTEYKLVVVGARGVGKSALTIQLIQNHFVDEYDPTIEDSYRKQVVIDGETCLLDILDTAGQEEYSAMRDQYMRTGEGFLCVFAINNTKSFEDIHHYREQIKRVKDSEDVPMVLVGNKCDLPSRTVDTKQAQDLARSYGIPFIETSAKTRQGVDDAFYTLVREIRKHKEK
Put plainly: Disrupting RAS-effector binding HTRF assay, Raf1 RBD-KRAS G12R-GppNHp. The following applies: PPI HTRF, 50 nM Avi-KRAS G12R GppNHp, compound titration 30-0.0045 μM; read-out: Raf1 RBD-KRAS G12R-GppNHp disruption. How it is done:
as §3, §4, §5, §6, §7, §8

The target of experiment [6] is T4, Avi-KRAS G12D (1-169) GppNHp/RAF1 RBD-3×FLAG (52-151) (Homo sapiens, UniProt P01116, G12D).
T4 construct: 50 nM Avi-KRAS G12D (1-169) GppNHp/RAF1 RBD-3×FLAG (52-151)
T4 sequence (P01116 1-169 isoform P01116-2 G12D limits assumed): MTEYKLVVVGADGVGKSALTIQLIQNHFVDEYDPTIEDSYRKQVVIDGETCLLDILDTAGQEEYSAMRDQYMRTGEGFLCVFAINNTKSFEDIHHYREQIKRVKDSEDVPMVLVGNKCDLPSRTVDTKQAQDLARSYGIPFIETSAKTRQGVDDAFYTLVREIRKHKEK
Put plainly: Disrupting RAS-effector binding HTRF assay, Raf1 RBD-KRAS G12D-GppNHp. The note with it: PPI HTRF, 50 nM Avi-KRAS G12D GppNHp, compound titration 30-0.0045 μM; read-out: Raf1 RBD-KRAS G12D-GppNHp disruption. Here is the method:
as §3, §4, §5, §6, §7, §8

Some results are limits rather than exact numbers.

T2 sequence (P01116 1-169 isoform P01116-2 limits assumed): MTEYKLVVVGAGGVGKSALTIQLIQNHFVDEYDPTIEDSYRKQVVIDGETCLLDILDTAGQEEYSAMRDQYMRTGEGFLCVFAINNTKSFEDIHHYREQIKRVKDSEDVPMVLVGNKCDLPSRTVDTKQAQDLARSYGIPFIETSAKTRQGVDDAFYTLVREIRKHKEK

Take `CO[C@@H](C)COc1nc(N2CC3CCC(C2)N3)c2cc(C(F)(F)F)c(-c3ccc(F)c4sc(N)c(C#N)c34)c(F)c2n1` [Compound 72]: the IC50 in experiment [1] was at most 0.1 µM; in experiment [2], over 10 µM.
Take `CC(=O)Nc1nc(N2CC3CCC(C2)N3)c2cc(C(F)(F)F)c(-c3ccc(F)c4sc(N)c(C#N)c34)c(F)c2n1` [Compound 28]: the IC50 in experiment [3] was over 10 µM; in experiment [4], over 10 µM; in experiment [5], over 10 µM; in experiment [1], at most 0.1 µM; in experiment [2] it was over 10 µM; in experiment [6], 1 to 10 µM.
Take `N#Cc1c(N)sc2c(F)ccc(-c3c(C(F)(F)F)cc4c(N5CC6CCC(C5)N6)nc(OC[C@@H](O)CO)nc4c3F)c12` [Compound 34]: the IC50 in experiment [3] is 1 to 10 µM; in experiment [4] it was 1 to 10 µM; in experiment [5] it was over 10 µM; in experiment [1] it was 0.1 to 1 µM; in experiment [2], over 10 µM; in experiment [6], 0.1 to 1 µM.
On to `N#Cc1c(N)sc2c(F)ccc(-c3c(C(F)(F)F)cc4c(N5CC6CCC(C5)N6)nc(OC[C@H](O)CO)nc4c3F)c12` [Compound 29], for which the IC50 was 1 to 10 µM in experiment [3]; 1 to 10 µM in experiment [4]; 1 to 10 µM in experiment [5]; at most 0.1 µM in experiment [1]; 1 to 10 µM in experiment [2]; 0.1 to 1 µM in experiment [6].
As for `CN(c1nc(OCC2CCOCC2)nc2c(F)c(-c3ccc(F)c4sc(N)c(C#N)c34)c(C(F)(F)F)cc12)[C@@H]1CCCNC1` [Compound 62], the IC50 in experiment [3] is over 10 µM; in experiment [4], over 10 µM; in experiment [5], over 10 µM; in experiment [1], over 1 µM; in experiment [2] it was over 10 µM; in experiment [6] it was 1 to 10 µM.
With `CN(c1nc(OCC2CCOCC2)nc2c(F)c(-c3ccc(F)c4sc(N)c(C#N)c34)c(C(F)(F)F)cc12)[C@H]1CCCNC1` [Compound 63], the IC50 is over 10 µM in experiment [3]; over 10 µM in experiment [4]; over 10 µM in experiment [5]; over 1 µM in experiment [1]; over 10 µM in experiment [2]; over 10 µM in experiment [6].
As to `CN(c1nc(OCC2CCOCC2)nc2c(F)c(-c3ccc(F)c4sc(N)c(C#N)c34)c(C(F)(F)F)cc12)C1CCNCC1` [Compound 61], the IC50 in experiment [3] was over 10 µM; in experiment [4] it was over 10 µM; in experiment [5], over 10 µM; in experiment [1], over 1 µM; in experiment [2], over 10 µM; in experiment [6], 1 to 10 µM.
Regarding `COC[C@H](C)Oc1nc(N2CC3CCC(C2)N3)c2cc(C(F)(F)F)c(-c3ccc(F)c4sc(N)c(C#N)c34)c(F)c2n1` [Compound 71], the values for the IC50 in experiment [1] and in experiment [2] were at most 0.1 µM and over 10 µM, respectively.
With `N#Cc1c(N)sc2c(F)ccc(-c3c(C(F)(F)F)cc4c(N5CC6CCC(C5)N6)nc(OCC5CCCOC5)nc4c3F)c12` (centres unmarked) [Compound 48], the IC50 was over 10 µM in experiment [3]; 1 to 10 µM in experiment [4]; over 10 µM in experiment [5]; at most 0.1 µM in experiment [1]; over 10 µM in experiment [2]; 1 to 10 µM in experiment [6].
As to `N#Cc1c(N)sc2c(F)ccc(-c3c(C(F)(F)F)cc4c(N5CC6CCC(C5)N6)nc(OCCC5CCOCC5)nc4c3F)c12` [Compound 46], the IC50 in experiment [3] was over 10 µM; in experiment [4], 1 to 10 µM; in experiment [5], over 10 µM; in experiment [1], at most 0.1 µM; in experiment [2] it was over 10 µM; in experiment [6], 0.1 to 1 µM.
Regarding `N#Cc1c(N)sc2c(F)ccc(-c3c(C(F)(F)F)cc4c(N5CC6CCC(C5)N6)nc(O)nc4c3F)c12` [Compound 43], the IC50 in experiment [3] is over 10 µM; in experiment [4], over 10 µM; in experiment [5], over 10 µM; in experiment [1], over 1 µM; in experiment [2] it was over 10 µM; in experiment [6] it was over 10 µM.
In the case of `COC[C@@H](C)Oc1nc(N2CC3CCC(C2)N3)c2cc(C(F)(F)F)c(-c3ccc(F)c4sc(N)c(C#N)c34)c(F)c2n1` [Compound 67], the IC50 is at most 0.1 µM in experiment [1] and over 10 µM in experiment [2].
For `CO[C@H](C)COc1nc(N2CC3CCC(C2)N3)c2cc(C(F)(F)F)c(-c3ccc(F)c4sc(N)c(C#N)c34)c(F)c2n1` [Compound 66], in that order: at most 0.1 µM and over 10 µM.
For `N#Cc1c(N)sc2c(F)ccc(-c3c(C(F)(F)F)cc4c(N5CC6CCC(C5)N6)nc(O[C@@H]5CCOC5)nc4c3F)c12` [Compound 68], in that order: at most 0.1 µM and over 10 µM.
For `N#Cc1c(N)sc2c(F)ccc(-c3c(C(F)(F)F)cc4c(N5CC6CCC(C5)N6)nc(O[C@H]5CCOC5)nc4c3F)c12` [Compound 69], in that order: at most 0.1 µM and over 10 µM.
For the compound `N#Cc1c(N)sc2c(F)ccc(-c3c(C(F)(F)F)cc4c(N5CC6CCC(C5)N6)nc(OC5CCOCC5)nc4c3F)c12` [Compound 70], the IC50 in experiment [1] is at most 0.1 µM; in experiment [2], over 10 µM.

Source of the values: US20260035376A1, “COMPOSITIONS AND METHODS FOR INHIBITION OF RAS” (TheRas, Inc., priority 2022, published 2026).
